Columns and labels:
[1] = molecular target: T1, E. coli ALBP (allose binding protein) fusion protein CalsBY-QV (Gln-Val between ECFP and ALBP), SEQ ID NO: 36 (Escherichia coli, UniProt P39265); assay: Allose titration and sugar specificity of FRET sensor CalsBY-QV
T1 construct: made in house; host or cells: E. coli JM109 (DE3)

[2] = molecular target: T2, E. coli RBP (ribose binding protein) fusion protein CrbsBY-ND (Asn-Asp between ECFP and RBP), SEQ ID NO: 38 (Escherichia coli, UniProt P02925); assay: Ribose titration and sugar specificity of FRET sensor CrbsBY-ND; settings: for affinity (substrate specificity): in words, FIG. 12C
T2 construct: made in house; host or cells: E. coli JM109 (DE3)
Experimental: (§1) The fluorescence analysis of the MBP fusion proteins expressed and purified in Example 2 was performed using fluorescence spectrophotometer Cary Eclipse (Varian, Australia) at 25° C., and the MBP fusion proteins were diluted in PBS buffer (pH 7.4) to the same concentrations of 0.2 μM. To define the FRET efficiency in the fluorescence analysis, the emission intensity ratio between the emission intensity of ECFP at 480 nm, measured at an excitation wavelength of 436 nm, and the emission intensity of EYFP at 530 nm, caused by FRET, was substituted into Equation 3 below for convenience: Ratio=[530 nm/480 nm] [Equation 3]
(§2) Profiles of the ratios at wide substrate concentrations were fit by a four-parameter Hill equation with SigmaPlot (SSI, USA) and the binding substance concentration corresponding to the medium between ratio10 mM and ratioapo was determined to be the dissociation constant (Kd) of the fusion proteins.
(§3) The selection of PBPs to be introduced into the MBP position was performed by collecting data from SCOP (Structural Classification of Proteins; http://scop.mrc-lmb.cam.ac.uk/scop/), and then investigating the kinetic change of three-dimensional structures which is accompanied by substrate binding in PDB (Protein Data Bank, http://www.rcsb.org/pdb/). For example, three kinds of E. coli-derived PBPs such as ALBP, RBP, and ARBP were introduced into the MBP site of the MBP fusion proteins according to the present invention. For this purpose, the genetic sequence information of said PBPs was secured from Swiss-Prot (http://kr.expasy.org/), and on the basis of the information, primers capable of amplifying genes encoding the PBPs were constructed. The genes were amplified by performing PCR from the chromosome of E. coli MG1655 using the constructed primers.
(§4) The fusion protein expression vectors constructed in the form of libraries as described above were transformed into E. coli JM109 (DE3), and 3-5 bacterial strains transformed with vectors were randomly selected from each of the libraries without carrying out the screening process described in Example 4, and were expressed and purified according to the method of Example 2. Then, the various PBP fusion proteins were subjected to analyze the fluorescence characteristics to each of substances, and sugar sensors (the fluorescent indicator proteins for detection of sugar) having the highest signal intensity were selected. As a result, as shown on FIGS. 11A, 11B and 11C, and Table 2 below, CalsBY-QV of SEQ ID NO: 36, CaraFY-PR of SEQ ID NO: 37 and CrbsBY-ND of SEQ ID NO: 38 could be secured.
(§5) To examine the substrate affinity of said three kinds of fusion proteins, the substrate specificity thereof for a variety of sugars was analyzed.

[3] = molecular target: T3, MBP (maltose binding protein) fusion protein CMY-QI (Gln-Ile between ECFP and MBP), SEQ ID NO: 31 (Escherichia coli, UniProt P0AEX9); assay: Maltose titration of FRET sensor CMY-QI; settings: range between 10 and 90% saturation
T3 construct: made in house; host or cells: E. coli JM109 (DE3)
Experimental: as §1, §2

[4] = molecular target: T4, MBP (maltose binding protein) fusion protein CMY-B (ECFP-MBP-EYFP) (Escherichia coli, UniProt P0AEX9); assay: Maltose response of FRET sensor CMY-B; settings: in words; control for yeast imaging, 10 mM maltose
T4 construct: mature MBP from pMALc2x; expressed in E. coli JM109(DE3), purified
Experimental: as §1, §2

[5] = molecular target: T5, MBP (maltose binding protein) fusion protein CMY-LH (Leu-His between ECFP and MBP), SEQ ID NO: 32 (Escherichia coli, UniProt P0AEX9); assay: Maltose titration and sugar specificity of FRET sensor CMY-LH; settings: for affinity (substrate specificity): in words, FIG. 8A, 10 mM for d-glucose and melezitose, change attributed to contamination of trace maltose
T5 construct: made in house; host or cells: E. coli JM109 (DE3)
Experimental: as §1, §2

[6] = molecular target: T6, MBP (maltose binding protein) fusion protein CMY-LH variant CMY-LH/W62H (Trp62His in MBP), SEQ ID NO: 34 (Escherichia coli, UniProt P0AEX9, W88H); assay: Maltose titration and sugar specificity of FRET sensor CMY-LH/W62H; settings: range between 10 and 90% saturation
T6 construct: made in house; host or cells: E. coli JM109 (DE3)
Experimental: as §1, §2

[7] = molecular target: T7, MBP (maltose binding protein) fusion protein CMY-LH variant CMY-LH/W62A (Trp62Ala in MBP), SEQ ID NO: 33 (Escherichia coli, UniProt P0AEX9, W88A); assay: Maltose titration of FRET sensor CMY-LH/W62A; settings: range between 10 and 90% saturation
T7 construct: made in house; host or cells: E. coli JM109 (DE3)
Experimental: as §1, §2

[8] = molecular target: T8, MBP (maltose binding protein) fusion protein CMY-0 (ECFP-MBP-EYFP without connecting peptides) (Escherichia coli, UniProt P0AEX9); assay: Maltose titration of FRET sensor CMY-0 (fluorescence ratio 530/480 nm); settings: range between 10 and 90% saturation
T8 construct: mature MBP amplified from pMALc2x (NEB); expressed in E. coli JM109(DE3), purified
Experimental: as §1, §2

[9] = molecular target: T9, SBP (sucrose binding protein; MBP mutant Asp14Leu, Lys15Phe, Trp62Tyr, Glu111Tyr) fusion protein CSY-BII (Escherichia coli, UniProt P0AEX9, D40L/E137Y/K41F/W88Y); assay: Sucrose and maltose titration of FRET sensor CSY-BII; settings: for Quantification range: range between 10 and 90% saturation
T9 construct: SBP = engineered MBP made on pMALc2x template; expressed in E. coli JM109(DE3), purified
Experimental: as §1, §2
(§6) The MBP-encoding gene to be used as a template was a pMALc2x vector (NEB, USA), and to make the SBP gene, PCR was performed using primers of SEQ ID NOs: 27, 28, 29 and 11. Because the above-amplified gene contains partial mutations in MBP, including a substitution of Asp14 with Leu, a substitution of Lys15 with Phe, a substitution of Trp62 with Tyr, and a substitution of Glu111 with Tyr, it encodes the SBP gene capable of binding to sucrose, as reported in the prior art (Guntas, G. et al., PNAS, 102:11224, 2005).
(§7) The above SBP fusion protein expression vectors were transformed into E. Coli JM109 (DE3), expressed and purified according to the method of Example 3.

[10] = molecular target: T10, SBP (sucrose binding protein; MBP mutant Asp14Leu, Lys15Phe, Trp62Tyr, Glu111Tyr) fusion protein CSY-LH, SEQ ID NO: 39 (Escherichia coli, UniProt P0AEX9, D40L/E137Y/K41F/W88Y); assay: Sucrose and maltose titration and sugar specificity of FRET sensor CSY-LH; settings: for Quantification range: range between 10 and 90% saturation
T10 construct: made in house; host or cells: E. coli JM109 (DE3)
Experimental: as §1, §2, §6, §7
The CSY-LH was analyzed for binding affinity for a variety of sugars.

[11] = molecular target: T11, MBP (maltose binding protein) fusion protein CMY-BII (ECFP-SR-MBP-GS-EYFP) (Escherichia coli, UniProt P0AEX9); assay: Maltose titration of FRET sensor CMY-BII; settings: range between 10 and 90% saturation
T11 construct: mature MBP from pMALc2x; expressed in E. coli JM109(DE3), purified
Experimental: as §1, §2

[12] = molecular target: T12, SBP (sucrose binding protein; MBP mutant Asp14Leu, Lys15Phe, Trp62Tyr, Glu111Tyr) fusion protein CSY-B (Escherichia coli, UniProt P0AEX9, D40L/E137Y/K41F/W88Y); assay: Sucrose and maltose titration of FRET sensor CSY-B; settings: for Quantification range: range between 10 and 90% saturation
T12 construct: SBP = engineered MBP made on pMALc2x template; expressed in E. coli JM109(DE3), purified
Experimental: as §1, §2, §6, §7

[13] = molecular target: T13, MBP (maltose binding protein) fusion protein CMY-LH variant CMY-LH/W62L (Trp62Leu in MBP), SEQ ID NO: 35 (Escherichia coli, UniProt P0AEX9, W88L); assay: Maltose titration and sugar specificity of FRET sensor CMY-LH/W62L; settings: range between 10 and 90% saturation
T13 construct: made in house; host or cells: E. coli JM109 (DE3)
Experimental: as §1, §2

[14] = molecular target: T14, E. coli ARBP (arabinose binding protein) fusion protein CaraFY-PR (Pro-Arg between ECFP and ARBP), SEQ ID NO: 37 (Escherichia coli, UniProt P02924); assay: Arabinose titration and sugar specificity of FRET sensor CaraFY-PR; settings: for affinity (substrate specificity): in words, FIG. 12B
T14 construct: made in house; host or cells: E. coli JM109 (DE3)
Experimental: as §1, §2, §3, §4, §5

[15] = ratio(10 mM) minus ratioapo, saturating sugar

## OC[C@H]1OC(O)[C@H](O)[C@H](O)[C@@H]1O (some centres unmarked) [allose]
[1]; allose, range between 10 and 90% saturation
  Quantification range: 0.04 to 2.81 µM
[2]
  affinity (substrate specificity): very high affinity

## OC1OC[C@@H](O)[C@@H](O)[C@H]1O (some centres unmarked) [ribose]
[1]; in words, FIG. 12A, ribose at mM levels
  affinity (substrate specificity): low affinity
[2]; ribose, 50% saturation
  Kd: 170 ± 10 nM
[2]; ribose, range between 10 and 90% saturation
  Quantification range: 0.03 to 1.15 µM
[2]; ribose, ratio(10 mM) minus ratioapo, saturating sugar
  Δratio: −0.12

## OC[C@H]1O[C@H](O[C@H]2[C@H](O)[C@@H](O)C(O)O[C@@H]2CO)[C@H](O)[C@@H](O)[C@@H]1O (some centres unmarked) [maltose]
[3]
  Quantification range: 0.2 to 15.1 µM
[4]
  sensitivity to maltose: no sensitivity
[5]; maltose, range between 10 and 90% saturation
  Quantification range: 0.2 to 13.2 µM
[6]
  Quantification range: 5 to 325 µM
[7]
  Quantification range: 31-2,080 μM
[8]
  Quantification range: 0.5 to 11.2 µM
[9]
  Quantification range: 155-3,800 μM
[10]
  Quantification range: 80-5,080 μM
[11]
  Quantification range: 0.3 to 13.3 µM
[12]
  Quantification range: 120-9,500 μM
[13]
  Quantification range: 10 to 650 µM

## OC[C@H]1OC(O)[C@H](O)[C@@H](O)[C@@H]1O (stereo partly drawn) [d-glucose]
[5]
  affinity (substrate specificity): low level of affinity

## OC[C@H]1OC(O)[C@H](O)[C@@H](O)[C@H]1O (some centres unmarked) [galactose]
[14]
  affinity (substrate specificity): very high affinity

## OC1OC[C@@H](O)[C@H](O)[C@H]1O (some centres unmarked) [xylose]
[14]
  affinity (substrate specificity): low affinity
[2]
  affinity (substrate specificity): significant affinity

## OC[C@H]1O[C@H](OC[C@H]2OC(O)[C@H](O)[C@@H](O)[C@@H]2O)[C@H](O)[C@@H](O)[C@H]1O (some centres unmarked) [melibiose]
[14]
  affinity (substrate specificity): low affinity

## OC1OC[C@H](O)[C@H](O)[C@H]1O (some centres unmarked) [arabinose]
[14]
  Kd: 360 ± 10 nM
[14]; arabinose, range between 10 and 90% saturation
  Quantification range: 0.05 to 2.74 µM
[14]; arabinose, ratio(10 mM) minus ratioapo, saturating sugar
  Δratio: 0.29

## OC[C@H]1O[C@@H](O[C@H]2[C@H](O)[C@@H](O)C(O)O[C@@H]2CO)[C@H](O)[C@@H](O)[C@H]1O (some centres unmarked) [lactose]
[14]
  affinity (substrate specificity): low affinity

## OC[C@H]1O[C@@](CO)(O[C@H]2O[C@H](CO)[C@@H](O)[C@H](O)[C@H]2O)[C@@H](O)[C@@H]1O [sucrose]
[9]
  Kd: 234 ± 18 µM
  Quantification range: 30-1,880 μM
[9]; [15]
  Δratio: 0.14
[10]
  Kd: 163 ± 3 µM
  Quantification range: 17-1,560 μM
[10]; compared to Guntas et al., PNAS, 102:11224, 2005
  Kd, fold higher than previously reported results: about 25 fold
[10]; [15]
  Δratio: 0.72
[12]
  Kd: 286 ± 16 µM
  Quantification range: 20-3,700 μM
[12]; [15]
  Δratio: −0.11

## OC[C@H]1O[C@@](CO)(O[C@H]2O[C@H](CO)[C@@H](O)[C@H](O)[C@H]2O)[C@@H](O[C@H]2O[C@H](CO)[C@@H](O)[C@H](O)[C@H]2O)[C@@H]1O [melezitose]
[5]
  affinity (substrate specificity): low level of affinity

## C[C@@H]1OC(O)[C@H](O)[C@H](O)[C@H]1O (some centres unmarked) [rhamnose]
[14]
  affinity (substrate specificity): low affinity

— US7432353B2, “Fluorescent indicator proteins” (priority 2005, dated 2008)
